Measured values from ChEMBL document CHEMBL1201862, “PubChem BioAssay data set” (2004).
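How tested: cells in 96-well plates exposed to compound for 48 hours at five concentrations. At the GI50, growth is halved.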 The source made the active and inactive calls. Cut-off read from the data, not from the text of the source: active = GI50 up to about 1.1 µM and inactive = higher.

What was measured:
Assay in all cases: NCI anticancer screen, dose series, 48 h
[1] = tested on: SN12C
[2] = tested on: NCI-H23
[3] = tested on: SF-268
[4] = tested on: EKVX
[5] = tested on: HCC 2998
[6] = tested on: NCI-H226
[7] = tested on: Malme-3M
[8] = tested on: SK-OV-3
[9] = tested on: A549
[10] = tested on: 786-0
[11] = tested on: UO-31
[12] = tested on: U-251
[13] = tested on: HT-29
[14] = tested on: TK-10
[15] = tested on: LOX IMVI
[16] = tested on: HOP-92
[17] = tested on: NCI-H522

Measured: GI50

COc1cc([C@@H]2c3cc4c(cc3[C@@H](OC(=O)c3cccc(N)c3)C3COC(=O)[C@@H]32)OCO4)cc(OC)c1O (some centres not stated)
inactive: [1] 3.42 µM | [2] 1.19 µM | [3] 1.47 µM | [4] 27 µM | [5] 9.93 µM | [6] 1.15 µM | [7] 2.37 µM | [8] 11.5 µM | [9] 1.63 µM | [10] 2.49 µM | [11] 5.26 µM | [12] 5.85 µM | [13] 3.13 µM | [14] 59.3 µM | [15] 4.47 µM

CCOC(=O)C1(Cc2ccc3ccccc3c2)CCCCCN1 (configuration not stated)
inactive: [1] 29.4 µM | [2] 30 µM | [3] 58.5 µM | [4] 69.5 µM | [5] 19.1 µM | [7] 16.5 µM | [8] 32.7 µM | [9] 52.4 µM | [10] 17.3 µM | [11] 20.3 µM | [12] 47 µM | [16] 13.9 µM | [13] 12.6 µM | [14] 54.1 µM | [15] 20.1 µM

Oc1cc(O)c2c(-c3c(O)c(-c4ccc(O)c(O)c4)[o+]c4cc(O)cc(O)c34)c(O)c(-c3ccc(O)c(O)c3)[o+]c2c1
inactive: [1] 39.9 µM | [2] 40.3 µM | [3] 40.3 µM | [4] 28.7 µM | [5] 39.2 µM | [6] 20.1 µM | [7] 46 µM | [8] 34.1 µM | [9] 48.2 µM | [10] 35.5 µM | [11] 40.4 µM | [12] 30.9 µM | [16] 36.7 µM | [13] 37.6 µM | [14] 61.5 µM | [15] 32.4 µM

O=C(CCC(=O)N/N=C/c1ccccc1O)N/N=C/c1ccccc1O
inactive: [1] > 100 µM | [2] 94.6 µM | [3] 18.8 µM | [4] 20.9 µM | [5] > 100 µM | [6] > 100 µM | [7] > 100 µM | [8] 18.9 µM | [9] > 100 µM | [17] 53.2 µM | [10] > 100 µM | [11] > 100 µM | [12] 32.7 µM | [16] 27.9 µM | [13] > 100 µM | [14] 29.4 µM

CCOC(=O)C1(C)CCCCC(=O)N1 (configuration not stated)
inactive: [1] > 100 µM | [2] > 100 µM | [3] > 100 µM | [4] > 100 µM | [5] > 100 µM | [7] > 100 µM | [8] > 100 µM | [9] > 100 µM | [10] > 100 µM | [11] > 100 µM | [12] > 100 µM | [16] > 100 µM | [13] > 100 µM | [14] > 100 µM | [15] > 100 µM

CC(=O)OC12/C(=N/O)CCCCCC1c1ccccc12 (configuration not stated)
inactive: [1] > 100 µM | [2] 70.8 µM | [3] > 100 µM | [4] 68.1 µM | [6] > 100 µM | [7] > 100 µM | [8] > 100 µM | [9] > 100 µM | [17] 31.2 µM | [10] > 100 µM | [11] 27.5 µM | [12] > 100 µM | [13] > 100 µM | [14] > 100 µM | [15] > 100 µM

CC1=C(C)C(=O)c2c(cc3ccccn23)C1=O
inactive: [1] 13.7 µM | [2] 10.2 µM | [3] 20.9 µM | [4] 21.3 µM | [5] 15.5 µM | [6] 26.8 µM | [7] 4.9 µM | [8] 20 µM | [9] 18.4 µM | [10] 27.9 µM | [11] 24.3 µM | [12] 14.1 µM | [13] 18.5 µM | [14] 27 µM | [15] 5.14 µM

Nc1ccc(C2=N/C(=C\c3cccc(N)c3)C(=O)O2)cc1
inactive: [1] > 100 µM | [2] > 100 µM | [3] > 100 µM | [4] > 100 µM | [5] > 100 µM | [7] > 100 µM | [8] > 100 µM | [9] > 100 µM | [17] > 100 µM | [10] > 100 µM | [11] > 100 µM | [12] > 100 µM | [16] > 100 µM | [13] > 100 µM | [14] > 100 µM

Cc1ccc(/N=N/c2c(C)nn(-c3ccccc3)c2C)c(Br)c1
inactive: [1] > 100 µM | [2] > 100 µM | [3] > 100 µM | [4] > 100 µM | [5] > 100 µM | [6] > 100 µM | [7] > 100 µM | [8] > 100 µM | [9] > 100 µM | [10] > 100 µM | [12] 60.8 µM | [16] > 100 µM | [13] 76.9 µM | [14] > 100 µM | [15] 53 µM
